Results on ten compounds are retold here after publication PMC4552634, “A New Set of Chemical Starting Points with Plasmodium falciparum Transmission-Blocking Potential for Antimalarial Drug Discovery” (PLoS ONE, 2015).

The test system of data set [1] is P. falciparum stage V gametocytes. Briefly: Gametocytocidal ATP bioluminescence assay (single point 5 μM and 1 μM, dose-response). The data set is classed as cell-based, Plasmodium falciparum. The conditions noted are these: for Ratio IC50 HepG2/IC50 P. falciparum: IC50 HepG2 divided by IC50 P. falciparum gametocytes.
Procedure: Purified stage IV-V gametocytes were obtained as previously described [10]. Single point ATP bioluminescence assay and dose–response of positive hits was determined in accordance with the previously published protocol [10].
A short description of data set [2]: Cytotoxicity in HepG2 cells (intracellular ATP, ATPlite, 48 h). The data set is classed as cell-based, human. Conditions: human, HepG2 cells, IC50 per ratio column head, unit inferred; for IC50 at 48 h: read-out: Cytotoxicity in HepG2.
The subject of the next data set is HepG2 cells. The data set is described as above. The data set is classed as cell-based, human. The conditions noted are these: IC50 HepG2 divided by IC50 P. falciparum gametocytes.
The subject of data set [3] is P. falciparum asexual stages. Conditions: cited from earlier work.
Setting [4] is: Plasmodium falciparum, P. falciparum gametocytes, average, read-out: IC50 Pf Gametocytes average, IC50 (µM) average.
Where [5] appears, read: sexual stages (gametocytes), dose-response, read-out: IC50 sexual.
Setting [6] is: asexual stages, TCAMS data, read-out: IC50 asexual.
Setting [7] is: Plasmodium falciparum, sexual stages (gametocytes), dose-response, read-out: IC50 sexual.
The mark [8] stands for this setting: P. falciparum asexual stages, TCAMS data, read-out: IC50 (µM) Pf asexual stages.

Like-named read-outs stand apart in the source and are kept apart here. Some results are limits rather than exact numbers.

On to `N=C(N=C(NCCCCCCNC(=NC(=N)NCc1ccc(Cl)c(Cl)c1)N1CCCCC1)N1CCCCC1)NCc1ccc(Cl)c(Cl)c1` [TCMDC-131816], for which the “Ratio IC50 HepG2/IC50 P. falciparum” value (in data set [1]; with HepG2 cells) was >68 throughout. Besides, the IC50 in data set [1] (setting [4]) was 0.37 µM; in data set [1] (setting [5]) it was 0.365 µM; in data set [3] (setting [6]) it was 0.567 µM. For the same compound, the IC50 at 48 h in data set [2] is > 25 µM.
With `CN1c2ccc([N+](=O)[O-])cc2C(C)(C)C12C=Cc1cc(Br)cc([N+](=O)[O-])c1O2` (stereo not drawn) [TCMDC-124178], the “Ratio IC50 HepG2/IC50 P. falciparum” value (in data set [1]; in the data set with HepG2 cells) was >23 throughout. Also, the IC50 was 1.09 µM in data set [1] (setting [4]), 1.09 µM in data set [1] (setting [5]), > 25 µM in data set [2] and 0.785 µM in data set [3] (setting [6]).
On to `CC(=NNC(=S)NCCc1ccccn1)c1ccccn1` [TCMDC-137895], for which the “Ratio IC50 HepG2/IC50 P. falciparum” value (in data set [1]; with HepG2 cells) was >17 each time. Further, the IC50 in data set [1] (setting [4]) is 1.49 µM; in data set [1] (Plasmodium falciparum, gametocytes (GC), value as repeated in the Clusters sheet, read-out: IC50 GC), 1.5 µM; in data set [1] (setting [7]), 1.5 µM; in data set [3] (setting [8]), 0.32 µM; in data set [3] (setting [6]), 0.319 µM. In addition, the IC50 at 48 h in data set [2] is > 25 µM.
For `Oc1ccc(CCNCCCCCCNCCc2ccc(Cl)c3ccccc23)cc1O` [TCMDC-131271], the “Ratio IC50 HepG2/IC50 P. falciparum” value (in data set [1]; with HepG2 cells) was 25 in each case. Also, the IC50 in data set [1] (setting [4]) is 0.53 µM; in data set [1] (setting [5]), 0.533 µM; in data set [3] (setting [6]) it was 0.716 µM. Also, in data set [2], the IC50 at 48 h was 13.5 µM.
Take `CCN(CC)Cc1cc(Nc2c3ccc(Cl)cc3nc3cccc(OC)c23)ccc1O` [TCMDC-139222]: the “Ratio IC50 HepG2/IC50 P. falciparum” value (in data set [1]; with HepG2 cells) was >25 each time. Further, the IC50 in data set [1] (setting [4]) was 1 µM; in data set [1] (setting [7]), 0.995 µM; in data set [3] (setting [8]), 0.0334 µM; in data set [3] (as previously determined for TCAMS, read-out: IC50 (μM) Pf Asexual stages), 0.03 µM; in data set [3] (setting [6]), 0.033 µM. The IC50 at 48 h in data set [2] was > 25 µM.
With `CS(=O)(=O)c1cccc(-c2cnc3[nH]cc(-c4cccc(CCN)c4)c3c2)c1` [TCMDC-136307], the “Ratio IC50 HepG2/IC50 P. falciparum” value (in data set [1]; with HepG2 cells) was >53 throughout. The IC50 was 0.47 µM in data set [1] (setting [4]), 1.56 µM in data set [3] (setting [8]) and 1.56 µM in data set [3] (setting [6]). Further, the IC50 at 48 h in data set [2] was > 25 µM.
For the compound `CC(C)CNCc1cccc(-c2cccc(CNCCCN3CCN(C)CC3)c2)c1` [TCMDC-140483], the “Ratio IC50 HepG2/IC50 P. falciparum” value (in data set [1]; with HepG2 cells) was >16 in each case. The IC50 in data set [1] (setting [4]) is 1.56 µM; in data set [1] (setting [5]) it was 1.56 µM; in data set [3] (setting [6]), 1.18 µM. In data set [2], the IC50 at 48 h is > 25 µM.
On to `N=C(N=C(NCCCCCCNC(=NC(=N)Nc1ccc(Cl)cc1)N1CCCCC1)N1CCCCC1)Nc1ccc(Cl)cc1` [TCMDC-131811], for which the “Ratio IC50 HepG2/IC50 P. falciparum” value (in data set [1]; in the data set with HepG2 cells) was 61 throughout. The IC50 in data set [1] (setting [4]) was 0.38 µM; in data set [1] (setting [5]), 0.375 µM; in data set [3] (setting [6]), 0.256 µM. Besides, in data set [2], the IC50 at 48 h turned out to be 22.9 µM.
Regarding `COc1ccc2nc3cc(Cl)ccc3c(NCCCCCCNc3c4ccc(Cl)cc4nc4ccc(OC)cc34)c2c1` [TCMDC-137503], the “Ratio IC50 HepG2/IC50 P. falciparum” value (in data set [1]; in the data set with HepG2 cells) was >500 in each case. Also, the figures for the IC50 in data set [1] (setting [4]) and in data set [3] (setting [6]) were 0.05 µM and 0.661 µM, respectively. Further, the IC50 at 48 h in data set [2] is > 25 µM.
With `CCCCN(CCCC)C(=NC(=N)NCc1ccc(Cl)c(Cl)c1)NCCCCCCNC(=NC(=N)NCc1ccc(Cl)c(Cl)c1)N(CCCC)CCCC` [TCMDC-131821], the “Ratio IC50 HepG2/IC50 P. falciparum” value (in data set [1]; in the data set with HepG2 cells) was 20 in each case. Besides, the IC50 in data set [1] (setting [4]) was 0.62 µM; in data set [1] (setting [5]) it was 0.615 µM; in data set [3] (setting [6]) it was 0.399 µM. Besides, in data set [2], the IC50 at 48 h was found to be 12.4 µM.
